Data published in PubChem BioAssay AID314 (DTP/NCI, 2004).
Values joined by “and” are separate entries in the source; they are usually repeats but may differ in a detail not shown here. Identical values can stand only once. Inconclusive results and toxic doses are left out. Rule for the calls: active = survival T/C of 150% or more; inactive = T/C below 125% in these data.

Test system: DBA/2 mice, P1534 leukemia ip, survival T/C
Test: NCI In Vivo Anticancer Drug Screen. Data for tumor model P1534 Leukemia (intraperitoneal) in DBA/2 mice
Conditions: endpoint: mean survival time, higher = longer survival
Procedure: The antitumor activity of compounds was measured in mice bearing transplantable tumors. Survival or tumor size were measured and the results are expressed as the measurement made in the treated group (T) divided by the measurement made in the vehicle treated control group (C). The tumor model used in this assay is P1534 Leukemia (intraperitoneal) in DBA/2 mice

[1] = dose: 1.25 mg/kg/injection, schedule: Q01DX010 (ip), vehicle: saline
[2] = dose: 2.5 mg/kg/injection, schedule: Q01DX010 (ip), vehicle: saline
[3] = dose: 5.0 mg/kg/injection, schedule: Q01DX010 (ip), vehicle: saline
[4] = dose: 6.25 mg/kg/injection, schedule: Q01DX010 (ip), vehicle: saline
[5] = dose: 8.0 mg/kg/injection, schedule: Q01DX010 (ip), vehicle: saline
[6] = dose: 16.0 mg/kg/injection, schedule: Q01DX010 (ip), vehicle: saline
[7] = dose: 32.0 mg/kg/injection, schedule: Q01DX010 (ip), vehicle: saline
[8] = dose: 25.0 mg/kg/injection, schedule: Q01DX010 (ip), vehicle: saline
[9] = dose: 50.0 mg/kg/injection, schedule: Q01DX010 (ip), vehicle: saline

Measured: T/C

NC(Cc1ccc(N(CCCl)CCCl)cc1)C(=O)O (stereo not given)
inactive: dose: 0.5 mg/kg/injection, schedule: Q01DX010 (ip), vehicle: alkali diluted with saline 102 % of control and 111 % of control | dose: 1.0 mg/kg/injection, schedule: Q01DX010 (ip), vehicle: alkali diluted with saline 104 % of control | [1] 100 % of control and 119 % of control | dose: 2.0 mg/kg/injection, schedule: Q01DX010 (ip), vehicle: alkali diluted with saline 99 % of control | [2] 100 % of control | dose: 4.0 mg/kg/injection, schedule: Q01DX010 (ip), vehicle: alkali diluted with saline 101 % of control | [3] 100 % of control

Nc1nc2n[nH]nc2c(=O)[nH]1
inactive: dose: 3.0 mg/kg/injection, schedule: Q01DX010 (ip), vehicle: alkali diluted with saline 100 % of control and 115 % of control | dose: 6.0 mg/kg/injection, schedule: Q01DX010 (ip), vehicle: alkali diluted with saline 100 % of control and 111 % of control | dose: 12.0 mg/kg/injection, schedule: Q01DX010 (ip), vehicle: alkali diluted with saline 107 % of control and 113 % of control

O=NN(CCCl)C(=O)NCCCl
inactive: dose: 1.57 mg/kg/injection, schedule: Q01DX010 (ip), vehicle: saline 100 % of control and 103 % of control | dose: 3.13 mg/kg/injection, schedule: Q01DX010 (ip), vehicle: saline 103 % of control and 111 % of control | [4] 100 % of control

CCNNC(=O)[C@@H]1[C@H](c2cc(OC)c(OC)c(OC)c2)c2cc3c(cc2[C@H](O)[C@H]1CO)OCO3
inactive: dose: 2.0 mg/kg/injection, schedule: Q01DX010 (ip), vehicle: saline 100 % of control | dose: 4.0 mg/kg/injection, schedule: Q01DX010 (ip), vehicle: saline 100 % of control | [5] 96 % of control and 100 % of control and 111 % of control | [6] 100 % of control (2×) and 103 % of control | [7] 103 % of control

O=C1C=CC2(CCC23C=CC(=O)O3)O1 (stereo not given)
inactive: [4] 100 % of control | dose: 12.5 mg/kg/injection, schedule: Q01DX010 (ip), vehicle: saline 100 % of control | [8] 106 % of control | [9] 86 % of control and 110 % of control

CN1CCCC1c1cccnc1 (stereo not given)
inactive: dose: 0.13 mg/kg/injection, schedule: Q01DX010 (ip), vehicle: saline 100 % of control | dose: 0.25 mg/kg/injection, schedule: Q01DX010 (ip), vehicle: saline 100 % of control | dose: 0.5 mg/kg/injection, schedule: Q01DX010 (ip), vehicle: saline 100 % of control | dose: 1.0 mg/kg/injection, schedule: Q01DX010 (ip), vehicle: saline 100 % of control

COc1cc([C@@H]2c3cc4c(c(O)c3C[C@H]3COC(=O)[C@@H]32)OCO4)cc(OC)c1OC
inactive: dose: 39.0 micrograms/kg/injection, schedule: Q01DX010 (ip), vehicle: saline 100 % of control | dose: 78.0 micrograms/kg/injection, schedule: Q01DX010 (ip), vehicle: saline 103 % of control | dose: 156.0 micrograms/kg/injection, schedule: Q01DX010 (ip), vehicle: saline 90 % of control

O=CCC(O)C(O)C(O)CO (stereo not given)
inactive: dose: 125.0 mg/kg/injection, schedule: Q01DX010 (ip), vehicle: saline 103 % of control | dose: 250.0 mg/kg/injection, schedule: Q01DX010 (ip), vehicle: saline 92 % of control and 107 % of control | dose: 500.0 mg/kg/injection, schedule: Q01DX010 (ip), vehicle: saline 107 % of control and 115 % of control

CN(C)/N=N/c1nc[nH]c1C(N)=O
inactive: [8] 96 % of control | [9] 90 % of control | dose: 100.0 mg/kg/injection, schedule: Q01DX010 (ip), vehicle: saline 86 % of control

Cc1cc(N(CCCl)CCCl)ccc1N=Nc1ccccc1C(=O)O
inactive: [3] 114 % of control and 123 % of control | dose: 10.0 mg/kg/injection, schedule: Q01DX010 (ip), vehicle: saline 118 % of control | dose: 20.0 mg/kg/injection, schedule: Q01DX010 (ip), vehicle: saline 107 % of control and 111 % of control

CCCCCC(=O)O[C@]1(C(C)=O)CC[C@H]2[C@@H]3CCC4=CC(=O)CC[C@]4(C)[C@H]3CC[C@@]21C
inactive: dose: 250.0 mg/kg/injection, schedule: Q01DX010 (sc), vehicle: steriod suspending solution 103 % of control | dose: 375.0 mg/kg/injection, schedule: Q01DX010 (sc), vehicle: steriod suspending solution 100 % of control | dose: 500.0 mg/kg/injection, schedule: Q01DX010 (sc), vehicle: steriod suspending solution 100 % of control | dose: 750.0 mg/kg/injection, schedule: Q01DX010 (sc), vehicle: steriod suspending solution 107 % of control

O=C(Nc1ccc(C2=NCCN2)cc1)c1cccc(C(=O)Nc2ccc(C3=NCCN3)cc2)c1
active: [5] 163 % of control | [6] 177 % of control | [7] 240 % of control | dose: 64.0 mg/kg/injection, schedule: Q01DX010 (ip), vehicle: saline 290 % of control

COC(=O)C1C(O)CCC2CN3CCc4c([nH]c5ccccc45)C3CC21 (stereo not given)
inactive: dose: 0.31 mg/kg/injection, schedule: Q01DX010 (ip), vehicle: saline 103 % of control | dose: 0.63 mg/kg/injection, schedule: Q01DX010 (ip), vehicle: saline 103 % of control | [1] 106 % of control | [2] 103 % of control
